# Data taken from patent US20250052985A1, “SYSTEM AND METHOD FOR QUANTITATIVE PHASE IMAGING FOR MULTI-PARAMETRIC SCREENING OF TUMOR THERAPY RESPONSE” (UNIVERSITY OF UTAH RESEARCH FOUNDATION, priority 2023, published 2025).
# “And” between values parts separate entries of the source, which are not always exact repeats. Identical values can stand only once. Like-named read-outs stand apart in the source and are kept apart here.
# Experiments:
# Type in all cases: cell-based
# MCF-7 cells = assay: CellTiter-Glo (CTG) ATP viability assay, MCF-7; settings: for Min Asymptote: MCF-7, Hill fit of luminescence normalized to solvent control, one line per replicate; for DoR CTG: depth of response
# Protocol: CTG (e.g., read by the CTG reader 115) is a cell viability assay that quantifies the amount of ATP present at the end of an experiment as an indicator of the number of live cells. The electronic controller 155 measures ATP content in each condition as a readout by a luminescent signal, which is normalized by the luminescence of the control (e.g., a control well) to determine cell viability relative to on-plate controls. In some embodiments, the CTG assay is performed by first removing 100 μL of media from each well on the well-plate 105, which is then replaced with an equal amount of CellTiter-Glo reagent (e.g., Promega, G7572). Assayed plates may be shaken at 500 RPM for 20 minutes and allowed to rest for 10 minutes. In some instances, 100 μL of volume from each well is transferred to a white 96-well plate (e.g., Perkin Elmer, 6005680). The electronic controller 155 collects luminescence data from each well using an Envision plate reader (e.g., Perkin Elmer) and normalized against the solvent control to measure ATP content. The electronic controller 155 fits a 4-parameter hill curve to the dose response to determine the EC50 and depth of response.
# HCI-037 PDxO cells = assay: QPI on cells from patient-derived organoid HCI-037 (primary lesion); settings: HCI-037, 48 h imaging, 3-parameter Hill model
# Protocol: (§1) In some embodiments, the QPI microscope system 110 performs QPI on cells from patient-derived organoids and direct-from-patient samples. For example, the electronic controller 155 analyzes data on cells from a set of 5 organoids representing samples collected from two patients, as illustrated by a workflow 3400 in FIG. 24. The workflow 3400 is an experiment workflow illustrating how assays are analyzed by the QPI microscope system 110. In some embodiments, the QPI microscope system 110 images cells for 48 h, and uses an automatic segmentation algorithm, via the electronic controller 155, to identify individual cells from background, as shown in images 3405 and 3410 of FIG. 24. […] The electronic controller 155 determines the mass of each cell by summing the cell mass over the segmented area. In some embodiments, plots of mass over time reveal single cell growth rates, as shown by graph 3415 of FIG. 24. The graph 3415 is a mass vs. time plot showing DMSO treated cells growing cells at a typical location. Cells outlined in green are shown as green on the plot, other growing cells are shown in purple. The electronic controller 155 determine the specific growth rate (SGR) by fitting a line to time-series mass measurements and normalizing by an initial mass predicted by the fit to account for the effect of cell size on growth rate. The electronic controller 155 fits SGR as a function of dose to a sigmoidal dose response curve using a 3-parameter Hill model to extract dose response measurements, as shown by graph 3420 of FIG. 24. […] In some embodiments, EC50 measured by the QPI microscope system 110 is strongly concordant with gold standard techniques such as CTG over 27 conditions (e.g., 9 compounds, 3 breast cancer cell lines). […] As with cell line data, QPI data on cells from PDxO resolves differences in temporal dynamics of response to therapy, as shown in graph 3425 of FIG. 24. […] In some embodiments, the electronic controller 155 is configured to determine a drug response of each of the plurality of treatment samples from patient derived organoids.
# The graphs 3500 includes graph A of the graphs 3500 showing normalized mass vs. time for HCI-037 (primary), HCI-038 (metastatic), and HCI-039 (pleural effusion) showing reduction in growth as concentration increases. Graphs B, C, D, and E of the graphs 3500 show dose response plots showing the differential response between different disease models. Graphs F, G, H, and I of the graphs 3500 show Hellinger distance vs. time plots showing the time of response for the different models treated with various therapies. In some embodiments, HCI-037, HCI-038, and HCI-039, PDxO models are used that are derived from primary lesion, bone metastasis, and pleural effusion, respectively, at different time points from a single patient during the course of treatment and progressive disease. In some embodiments, the electronic controller 155 is configured to determine a difference drug response from patient derived organoids. In some embodiments, the patient derived organoids are tumor organoids.
# HCI-038 PDxO cells = assay: QPI on cells from patient-derived organoid HCI-038 (bone metastasis); settings: HCI-038, bone metastasis
# Protocol: In some embodiments, the QPI microscope system 110 performs QPI on cells from patient-derived organoids and direct-from-patient samples. For example, the electronic controller 155 analyzes data on cells from a set of 5 organoids representing samples collected from two patients, as illustrated by a workflow 3400 in FIG. 24. The workflow 3400 is an experiment workflow illustrating how assays are analyzed by the QPI microscope system 110. In some embodiments, the QPI microscope system 110 images cells for 48 h, and uses an automatic segmentation algorithm, via the electronic controller 155, to identify individual cells from background, as shown in images 3405 and 3410 of FIG. 24. […] The electronic controller 155 determines the mass of each cell by summing the cell mass over the segmented area. In some embodiments, plots of mass over time reveal single cell growth rates, as shown by graph 3415 of FIG. 24. The graph 3415 is a mass vs. time plot showing DMSO treated cells growing cells at a typical location. Cells outlined in green are shown as green on the plot, other growing cells are shown in purple. […] In some embodiments, EC50 measured by the QPI microscope system 110 is strongly concordant with gold standard techniques such as CTG over 27 conditions (e.g., 9 compounds, 3 breast cancer cell lines). […]
# HCI-039 PDxO cells = assay: QPI on cells from patient-derived organoid HCI-039 (pleural effusion); settings: HCI-039, pleural effusion
# Protocol: as §1, with “organoids. […]” for “organoids.”
# [1] = test system: primary tumor cells (Patient #1); assay: QPI on primary cells after two-week expansion, Patient #1; settings: Patient #1
# Protocol: In some embodiments, the QPI microscope system 110 applies multiparametric QPI to primary cells from two clinical samples stored in cell bank at, for example, the Huntsman Cancer Institute plated after thawing from liquid nitrogen and CD45+ depleted to reduce the number of immune cells, as shown in FIG. 26.
# For example, the primary cells are plated as a 2D monolayer in Clever's complete medium in a 96 well plate (e.g., the well-plate 105) and are allowed to acclimate to cell culture conditions for 18 h prior to dosing with treatments assigned to each patient by a physician. […] The image 3600 is a QPI image of primary cells from a direct from thaw patient derived sample. […] The graph 3610 is a histogram of cell mass used to computationally filter, using the electronic controller 155, for low mass cells (shown in red in the image 3600 and the graph 3605). By using a cutoff between the peaks at, for example, 72 pg, low mass cells can be isolated that are not growing and remove such cells from analysis. […] Using this cutoff, the electronic controller 155 measures the dose response for cells in each condition to determine the EC50 and DoR for each condition studied for the primary cells, as shown in the graph 3615. The graph 3615 is a dose response plot for primary cells treated with therapies assigned to the patient by a physician. […] In some embodiments, the electronic controller 155 determines a drug response in cells from patient derived samples. For example, the electronic controller 155 determines the drug response in therapy treatment samples from patient derived samples.
# In some embodiments, both samples are expanded from primary cells in 2D culture using optimized ex vivo culture conditions for 2 weeks, changing media every 3 days to further purify the tumor cells, as shown in a workflow 3700 of FIG. 27.
# [2] = Homo sapiens, MCF7, 72 h, 72 h CTG, MCF-7, Hill fit, read-out: log10(EC50) (converted)
# [3] = Homo sapiens, MCF7, MCF-7 cell line, CellTiter-Glo, read-out: EC50, CTG (converted)
SMILES,Min Asymptote (MCF-7 cells; 24 h CTG),"log10(EC50) (MCF-7 cells; 72 h CTG, MCF-7, Hill fit)",Min Asymptote (MCF-7 cells; 72 h CTG),"EC50 (MCF-7 cells; MCF-7 cell line, CellTiter-Glo, read-out: EC50, CTG (converted))","DoR CTG (MCF-7 cells; MCF-7 cell line, CellTiter-Glo)",dose response (SGR vs dose) (HCI-037 PDxO cells),"Hill Slope (MCF-7 cells; 72 h CTG, MCF-7, Hill fit)",EC50 (MCF-7 cells; [2]),EC50 (MCF-7 cells; [3]),"Hill Slope (MCF-7 cells; 24 h CTG, MCF-7, Hill fit)","EC50 (MCF-7 cells; Homo sapiens, MCF7, 24 h, 24 h CTG, MCF-7, Hill fit, read-out: log10(EC50) (converted))",response compared with primary lesion model (HCI-038 PDxO cells),response compared with primary lesion model (HCI-039 PDxO cells),EC50 compared with eribulin [1]
"CCC(=C(c1ccc(O)cc1)c1ccc(OCCN(C)C)cc1)c1ccccc1 [4HT, 4-hydroxy-Tamoxifen]",7.96E−12 and 5.22E−09,−0.5373 and −0.5549 and −0.6776,2.23E−14 and 2.22E−14 and 3.01E−12,3.9 µM,1.0,strong response,–,–,–,–,–,–,–,–
CC(=O)O[C@@]12CO[C@@H]1C[C@H](O)[C@@]1(C)C(=O)[C@H](O)C3=C(C)[C@@H](OC(=O)[C@H](O)[C@@H](NC(=O)OC(C)(C)C)c4ccccc4)C[C@@](O)([C@@H](OC(=O)c4ccccc4)[C@H]21)C3(C)C [Docetaxel],–,3.291,0.368 (2×) and 0.4065,–,0.6,–,5.079 and 4.965,0.000455 µM,0.000501 µM,–,–,–,–,–
"O=c1[nH]cc(F)c(=O)[nH]1 [5FU, 5-Fluorouracil]",0.9238,–,0.1952 and 0.003653 and 0.01678,–,0.9,–,1.254 and 1.059 and 1.202,–,10.8 µM,7.081,1.89 µM,–,–,–
CC(=O)c1c(C)c2cnc(Nc3ccc(N4CCNCC4)cn3)nc2n(C2CCCC2)c1=O [Palbociclib],–,−0.1876,0.1244 (2×) and 0.221,–,1.0,–,0.7617 and 0.9004,1.62 µM,–,–,–,–,–,–
CC[C@]1(O)C[C@@H]2CN(CCc3c([nH]c4ccccc34)[C@@](C(=O)OC)(c3cc4c(cc3OC)N(C)[C@H]3[C@@](O)(C(=O)OC)[C@H](OC(C)=O)[C@]5(CC)C=CCN6CC[C@]43[C@@H]65)C2)C1 [Vinblastine],–,2.689,4.32E−11 (2×) and 1.18E−11,–,0.8,lesser response,0.2572 and 0.2217,0.00215 µM,1.6 µM,–,–,stronger response,stronger response,–
COc1cccc2c1C(=O)c1c(O)c3c(c(O)c1C2=O)C[C@@](O)(C(=O)CO)C[C@@H]3O[C@H]1C[C@H](N)[C@H](O)[C@H](C)O1 [Doxorubicin],–,–,–,–,–,strong response,–,–,–,–,–,–,–,lower EC50 than eribulin
C[C@]12CC[C@@H]3c4ccc(O)cc4C[C@@H](CCCCCCCCC[S+]([O-])CCCC(F)(F)C(F)(F)F)[C@H]3[C@@H]1CC[C@@H]2O (stereo partly drawn) [Fulvestrant],0.5189 and 0.9446,–,0.76 and 0.7073 and 0.6956,–,0.3,–,–,–,0.5 µM,–,–,–,–,–
